The values below come from US20210380606A1, “5-AZAINDAZOLE DERIVATIVES AS ADENOSINE RECEPTOR ANTAGONISTS” (Merck Patent GmbH, priority 2018, published 2021).

One assay addresses T1, human A2A receptors (Homo sapiens, UniProt P29274).
T1 construct: expressed in transfected cells; host or cells: HEK293
The experiment in a line: Functional human A2A receptor activity, recombinant HEK293 cells, cAMP (HTRF). In kind it is cell-based. The settings on record: read-out: A2A (Category). As for the experimental part: (§1) The functional activities of human A2A and A2B receptors were determined by quantification of cAMP, being the second messenger for adenosine receptors.
(§2) After a 15 min incubation, HTRF reagents (cAMP dynamic 2, Cis Bio) were added and the cellular cAMP levels were determined using the ENVISION (Perkin Elmer) plate reader.
(Time-resolved FRET reads energy transfer from a long-lived donor to a nearby acceptor.)

A further assay has as its target T2, human A2B receptors (Homo sapiens, UniProt P29275).
T2 construct: expressed in transfected cells; host or cells: HEK293
T2 sequence (P29275 1-332): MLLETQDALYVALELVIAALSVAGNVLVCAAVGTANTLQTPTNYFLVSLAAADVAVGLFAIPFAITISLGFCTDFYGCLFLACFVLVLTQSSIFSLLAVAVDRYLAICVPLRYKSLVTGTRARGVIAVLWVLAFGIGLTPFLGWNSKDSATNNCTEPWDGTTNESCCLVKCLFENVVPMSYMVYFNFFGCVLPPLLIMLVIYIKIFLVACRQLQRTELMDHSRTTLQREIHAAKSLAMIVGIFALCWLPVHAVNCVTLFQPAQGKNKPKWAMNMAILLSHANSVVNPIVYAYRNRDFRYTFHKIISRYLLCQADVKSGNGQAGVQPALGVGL
The experiment in a line: Functional human A2B receptor activity, recombinant HEK293 cells, cAMP (HTRF). It is filed as cell-based. The conditions noted are these: read-out: A2B (Category). As for the experimental part: as §1, §2

Molecules are shown by their SMILES.

T1 sequence (P29274 whole entry): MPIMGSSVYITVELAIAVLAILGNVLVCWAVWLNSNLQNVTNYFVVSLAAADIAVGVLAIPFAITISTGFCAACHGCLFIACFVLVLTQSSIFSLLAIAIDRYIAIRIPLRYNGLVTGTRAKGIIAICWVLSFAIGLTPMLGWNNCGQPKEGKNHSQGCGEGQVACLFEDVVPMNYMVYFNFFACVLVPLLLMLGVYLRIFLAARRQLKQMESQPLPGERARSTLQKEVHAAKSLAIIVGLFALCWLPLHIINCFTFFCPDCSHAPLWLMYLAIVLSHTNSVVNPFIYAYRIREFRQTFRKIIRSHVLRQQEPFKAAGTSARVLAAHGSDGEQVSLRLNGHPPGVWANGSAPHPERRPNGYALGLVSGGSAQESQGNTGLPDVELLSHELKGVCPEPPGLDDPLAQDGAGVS

For the compound `C[C@]1(O)[C@@H]2CC[C@H]1CN(C(=O)c1cc3c(cn1)c(-c1coc4ccccc14)nn3CC(F)(F)F)C2` [Compound 212, [3-Benzofuran-3-yl-1-(2,2,2-trifluoro-ethyl)-1H-pyrazolo[4,3-c]pyridin-6-yl]-(8-endo-hydroxy-8-exo-methyl-3-aza-bicyclo[3.2.1]oct-3-yl)-methanone], the IC50 is under 100 nM on human A2A receptors and under 1000 nM on human A2B receptors.
In the case of `C[C@@H]1COC[C@H](C)N1C(=O)c1cc2c(cn1)c(-c1cnc3c(F)cc(F)cn13)nn2CC(F)(F)F` [Compound 183, Cis-[3-(6,8-Difluoro-imidazo[1,2-a]pyridin-3-yl)-1-(2,2,2-trifluoro-ethyl)-1H-pyrazolo[4,3-c]pyridin-6-yl]-(3,5-dimethyl-morpholin-4-yl)-methanone], the IC50 on human A2A receptors is under 100 nM; at human A2B receptors it was under 1000 nM.
In the case of `O=C(c1cc2c(cn1)c(-c1cnc3c(F)cc(F)cn13)nn2CC(F)(F)F)N1CCCCC(O)C1` (racemic) [Compound 134, [3-(6,8-Difluoro-imidazo[1,2-a]pyridin-3-yl)-1-(2,2,2-trifluoro-ethyl)-1H-pyrazolo[4,3-c]pyridin-6-yl]-(3-hydroxy-azepan-1-yl)-methanone], the IC50 on human A2A receptors was under 100 nM; at human A2B receptors it was under 1000 nM.
On the same counts, the results for `O=C(c1cc2c(cn1)c(-c1coc3ccc(F)cc13)nn2CC(F)(F)F)N1CCOCC(O)C1` (centres unmarked) [Compound 118, [3-(5-fluorobenzofuran-3-yl)-1-(2,2,2-trifluoroethyl)pyrazolo[4,3-c]pyridin-6-yl]-(6-hydroxy-1,4-oxazepan-4-yl)methanone] are under 100 nM and under 100 nM.
Taken in the same sequence, the figures for `CS(=O)(=O)Cn1nc(-c2coc3ccccc23)c2cnc(C(=O)N3CCCC(O)C3)cc21` (centres unmarked) [Compound 38, (3-Benzofuran-3-yl-1-methanesulfonylmethyl-1H-pyrazolo[4,3-c]pyridin-6-yl)-(3-hydroxy-piperidin-1-yl)-methanone] were under 100 nM and under 1000 nM.
On the same counts, the results for `O=C(c1cc2c(cn1)c(-c1cnc3c(F)cc(F)cn13)nn2CC(F)(F)F)N1CCOCC(O)C1` (centres unmarked) [Compound 193, [3-(6,8-Difluoro-imidazo[1,2-a]pyridin-3-yl)-1-(2,2,2-trifluoro-ethyl)-1H-pyrazolo[4,3-c]pyridin-6-yl]-(6-hydroxy-1,4-oxazepan-4-yl)-methanone] are under 100 nM and under 1000 nM.
On to `O=C(c1cc2c(cn1)c(-c1coc3ccccc13)nn2CC(F)(F)F)N1CC2CCC(C2)C1` [Compound 101, (3-Aza-bicyclo[3.2.1]oct-3-yl)-[3-benzofuran-3-yl-1-(2,2,2-trifluoro-ethyl)-1H-pyrazolo[4,3-c]pyridin-6-yl]-methanone], for which the IC50 at human A2A receptors and on human A2B receptors was under 100 nM in each case.
In the case of `O=C(c1cc2c(cn1)c(-c1cnc3c(F)cc(F)cn13)nn2CC(F)(F)F)N1CCC2(CC1)COC2` [Compound 166, [3-(6,8-Difluoro-imidazo[1,2-a]pyridin-3-yl)-1-(2,2,2-trifluoro-ethyl)-1H-pyrazolo[4,3-c]pyridin-6-yl]-(2-oxa-7-aza-spiro[3.5]non-7-yl)-methanone], the values for the IC50 on human A2A receptors and at human A2B receptors were under 100 nM and under 1000 nM, respectively.
Taken in the same sequence, the figures for `CC1(O)C2CCC1CN(C(=O)c1cc3c(cn1)c(-c1cnc4c(F)cc(F)cn14)nn3CS(C)(=O)=O)C2` (stereo not drawn) [Compound 24, [3-(6,8-Difluoro-imidazo[1,2-a]pyridin-3-yl)-1-methanesulfonylmethyl-1H-pyrazolo[4,3-c]pyridin-6-yl]-(8-endo-hydroxy-8-exo-methyl-3-aza-bicyclo[3.2.1]oct-3-yl)-methanone] were under 100 nM and under 100 nM.
`CC1(C)CC(O)CCN1C(=O)c1cc2c(cn1)c(-c1coc3ccccc13)nn2CC(F)(F)F` (centres unmarked) [Compound 219, [3-Benzofuran-3-yl-1-(2,2,2-trifluoro-ethyl)-1H-pyrazolo[4,3-c]pyridin-6-yl]-(4-hydroxy-2,2-dimethyl-piperidin-1-yl)-methanone]: the IC50 at human A2A receptors is under 100 nM; on human A2B receptors, under 1000 nM.
